Data taken from publication PMC6467784 (Journal of medicinal chemistry, 2019).
pKi: −log10 of the molar value. “And” between values parts separate entries of the source, which are not always exact repeats. Identical values can stand only once. Like-named read-outs stand apart in the source and are kept apart here.

What was measured:
[1] = target: T1, hA1AR (Homo sapiens, UniProt P30542); experiment: hA1AR radioligand binding, CHO cell membranes; settings: for hA1AR selectivity compared to hA3AR: ratio of binding Ki
T1 sequence (P30542 1-326): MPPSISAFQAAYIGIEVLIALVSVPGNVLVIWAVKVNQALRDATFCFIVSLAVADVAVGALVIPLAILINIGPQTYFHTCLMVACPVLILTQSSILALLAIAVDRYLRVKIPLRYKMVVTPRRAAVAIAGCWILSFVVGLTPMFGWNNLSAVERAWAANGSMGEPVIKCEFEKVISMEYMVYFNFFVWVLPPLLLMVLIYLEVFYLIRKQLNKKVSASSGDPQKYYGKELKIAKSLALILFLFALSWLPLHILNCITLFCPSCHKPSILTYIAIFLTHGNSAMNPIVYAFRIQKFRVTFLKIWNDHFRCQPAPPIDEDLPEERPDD

[2] = system: mice; experiment: Hypothermia after intracerebroventricular infusion; format: in vivo, mouse
[3] = system: wild-type C57BL/6J mice; settings: average from dosing to 60 min, ref [30], cited from earlier work
[4] = system: A1AR, A3AR; settings: ref [30]; cited from earlier work
[5] = target: T2, mA1AR (Mus musculus, UniProt Q60612); experiment: mA1AR radioligand binding; settings: ratio of binding Ki
T2 sequence (Q60612 1-326): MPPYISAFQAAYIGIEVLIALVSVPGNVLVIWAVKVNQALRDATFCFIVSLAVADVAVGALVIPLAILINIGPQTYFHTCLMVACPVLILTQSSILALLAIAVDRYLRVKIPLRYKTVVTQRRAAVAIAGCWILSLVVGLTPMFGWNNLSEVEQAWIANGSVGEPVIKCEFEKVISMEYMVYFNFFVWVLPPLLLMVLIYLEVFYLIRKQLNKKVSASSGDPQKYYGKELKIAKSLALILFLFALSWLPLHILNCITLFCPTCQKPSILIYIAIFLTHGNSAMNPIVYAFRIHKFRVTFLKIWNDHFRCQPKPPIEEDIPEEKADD

[6] = system: off-target receptors and transporters; experiment: PDSP off-target screen; format: binding, human
[7] = system: wild-type C57BL/6J mice; experiment: Body temperature and locomotor activity by telemetry after ip. dosing; format: in vivo, mouse; settings: for Effect on Tb in WT mice: ip., up to 3 or 10 mg/kg
[8] = target: T3, hA2BAR (Homo sapiens, UniProt P29275); experiment: hA2BAR radioligand binding using [3H]54; settings: read-out: hA2BAR % binding inhibition at 10 μM
T3 sequence (P29275 1-332): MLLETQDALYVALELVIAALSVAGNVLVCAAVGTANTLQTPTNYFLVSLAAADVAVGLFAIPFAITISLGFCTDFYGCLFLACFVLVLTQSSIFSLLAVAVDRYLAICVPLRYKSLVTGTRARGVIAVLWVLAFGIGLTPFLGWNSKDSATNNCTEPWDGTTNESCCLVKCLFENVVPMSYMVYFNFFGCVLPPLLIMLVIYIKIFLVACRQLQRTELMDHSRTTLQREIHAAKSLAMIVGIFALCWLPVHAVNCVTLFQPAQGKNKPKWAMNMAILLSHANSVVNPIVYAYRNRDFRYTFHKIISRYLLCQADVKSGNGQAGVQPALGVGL

[9] = target: bovine A1AR; settings: read-out: Ki at bovine A1AR; ref [36],[37]; cited from earlier work
[10] = system: anesthetized rat; experiment: Cardiovascular effects in the anesthetized rat; format: in vivo; settings: 0.02 mg/kg, iv., preliminary
[11] = target: T1, hA1AR; settings: human (h); at 10 μM; ref [33],[34]; cited from earlier work
[12] = system: A1AR, A3AR; experiment: Hypothermia in A1AR, A3AR and A1AR/A3AR deficient mice; format: in vivo, mouse; settings: 3 mg/kg ip.

OC[C@@]12C[C@@H]1[C@@H](n1cnc3c(NC(C4CCC4)C4CCC4)ncnc31)[C@H](O)[C@@H]2O [Compound 24, (1R,2R,3S,4R,5S)-4-(6-((Dicyclobutylmethyl)amino)-9H-purin-9-yl)-1-(hydroxymethyl)bicyclo[3.1.0]hexane-2,3-diol]
A1AR selectivity ([1]; abstract, species and comparator not stated): ~ 400 fold | Effect on Tb after icv. administration ([2]; 1.67 μg/mouse icv. (= […])): reduced Tb only slightly | Tb reached after icv. administration ([2]; 5 μg injected icv. (equivalent to […])): ~ 24 °C

O[C@@H]1[C@H](O)[C@@H](CCl)O[C@H]1n1cnc2c(NC3C[C@H]4CC[C@@H]3C4)ncnc21 (stereo partly drawn) [Compound 4]
Tb ([3]; 3 mg/kg ip.): 32.2±1.3 °C | ARs causing hypothermia [4]: A1AR > A3AR[30]

O[C@H]1[C@H](n2cnc3c(NC(C4CCC4)C4CCC4)ncnc32)[C@H]2C[C@@]2(CCl)[C@H]1O [Compound 26, (1S,2R,3S,4R,5S)-1-(Chloromethyl)-4-(6-((dicyclobutylmethyl)amino)-9H-purin-9-yl)bicyclo[3.1.0]hexane-2,3-diol]
hA1AR selectivity compared to hA3AR [1]: ~ 300 fold | mA1AR selectivity compared to mA3AR [5]: 890 fold

O[C@H]1[C@H](n2cnc3c(N[C@H]4C[C@H]5CC[C@@H]4C5)nc(Cl)nc32)[C@H]2C[C@@]2(CCl)[C@H]1O [Compound 31, (1S,2R,3S,4R,5S)-4-(6-(((1R,2S,4S)-Bicyclo[2.2.1]heptan-2-yl)amino)-2-chloro-9H-purin-9-yl)-1-(chloromethyl)bicyclo[3.1.0]hexane-2,3-diol]
hA1AR selectivity compared to hA3AR [1]: 10 fold | Off-target, receptor: interactions found [6]: none | Effect on Tb in WT mice [7]: did not significantly induce hypothermia

OC[C@H]1O[C@@H](n2cnc3c(NC4CCCC4)ncnc32)[C@H](O)[C@@H]1O [Compound 1a]
Tb ([3]; 1 mg/kg ip.): 32.4±0.5 °C | ARs causing hypothermia [4]: A3AR > A1AR[30]

NC(=O)c1ncn([C@H]2[C@H](O)[C@H](O)[C@]3(CO)C[C@H]23)n1 [Compound 40]
hA1AR affinity relative to 38 ([1]; greater affinity than riboside 38): 15 fold | mA1AR selectivity compared to mA3AR [5]: 25.2 nM (~400) fold

NC(=O)c1ncn([C@@H]2O[C@H](CO)[C@@H](O)[C@H]2O)n1 [Compound 38, ribavirin, reference compound]
inhibition at 10 µM [8]: 39% | pKi [9]: 4.07

O[C@@H]1[C@H](O)[C@@H](CCl)O[C@H]1n1cnc2c(NC(C3CCC3)C3CCC3)ncnc21 [Compound 10, (2S,3S,4R,5R)-2-(Chloromethyl)-5-(6-((dicyclobutylmethyl)amino)-9H-purin-9-yl)tetrahydrofuran-3,4-diol]
hA1AR selectivity compared to hA3AR [1]: 3390 fold | mA1AR selectivity compared to mA3AR [5]: 2970 fold and > 2000 fold

OC[C@H]1O[C@@H](n2cnc3c(NC(C4CCC4)C4CCC4)nc(Cl)nc32)[C@H](O)C1O (stereo in doubt) [Compound 12, (2R,3R,4R,5R)-2-(2-Chloro-6-((dicyclobutylmethyl)amino)-9H-purin-9-yl)-5-(hydroxymethyl)tetrahydrofuran-3,4-diol]
hA1AR affinity relative to 9 ([1]; lower affinity than 9): 8 fold | hA1AR selectivity compared to hA3AR [1]: 742 fold | Tb ([7]; 3 mg/kg ip., average from dosing to 60 min, mean ±SD): 35.5±0.8 °C

OC[C@H]1O[C@@H](n2cnc3c(NC4CCCC4)nc(Cl)nc32)[C@H](O)[C@@H]1O [Compound 2]
Effect on blood pressure [10]: sustained rise in blood pressure

O[C@@H]1[C@H](O)[C@@H]2C[C@@H]2[C@H]1n1cnc2c(NC(C3CCCC3)C3CCCC3)nc(Cl)nc21 [Compound 20]
A1AR % inhibition [11]: 34±3% (h)

Nc1nc(Cl)nc2c1ncn2[C@H]1[C@H](O)[C@H](O)[C@]2(CCl)C[C@H]12 [Compound 22]
hA1AR affinity relative to 21 ([1]; higher affinity than parent 21): 14 fold

OC[C@@]12C[C@@H]1[C@@H](n1cnc3c(N[C@H]4C[C@H]5CC[C@@H]4C5)nc(Cl)cc31)[C@H](O)[C@@H]2O [Compound 30]
Off-target, receptor: interactions found [6]: none

OC[C@@]12C[C@@H]1[C@@H](n1cnc3c(N[C@H]4C[C@H]5CC[C@@H]4C5)nc(Cl)nc31)[C@H](O)[C@@H]2O [Compound 29, (1R,2R,3S,4R,5S)-4-(6-(((1R,2S,4S)-Bicyclo[2.2.1]heptan-2-yl)amino)-2-chloro-9H-purin-9-yl)-1-(hydroxymethyl)bicyclo[3.1.0]hexane-2,3-diol]
hA1AR selectivity compared to hA3AR [1]: 12 fold | Effect on Tb in WT mice [7]: hypothermic effect | Receptor dependence of hypothermia ([12]; A1AR KO, A3AR KO, double KO mice): via both central A1AR and peripheral A3AR | ARs causing hypothermia ([12]; WT vs AR-KO mice (Figure 2)): A3AR > A1AR (Figure 2)

CCOC(=O)[C@@]12C[C@@H]1[C@@H](n1cnc3c(NC(C4CCC4)C4CCC4)nc(Cl)nc31)[C@H](O)[C@@H]2O [Compound 35]
inhibition at 10 µM [8]: 38%

CCNC(=O)[C@H]1O[C@@H](n2cnc3c(N)ncnc32)[C@H](O)[C@@H]1O [Compound 16, reference compound]
Off-target, receptor: interactions found [6]: none

O[C@@H]1[C@H](O)[C@@H]2C[C@@H]2[C@H]1n1cnc2c(NC(C3CCC3)C3CCC3)nc(Cl)nc21 [Compound 19]
inhibition at 10 µM [8]: 24%

CNC(=O)[C@H]1O[C@@H](n2cnc3c(N)ncnc32)[C@H](O)[C@@H]1O [Compound 15, reference compound]
Off-target, receptor: interactions found [6]: none
